Legend:
[1] = target: T1, SMARCA2-HiBiT HeLa cells (protein which is expressed from the SMARCA2 gene) (Homo sapiens, UniProt P51531); experiment: SMARCA2 degradation assay (HiBiT-fusion HeLa cell line, 24 h, luminescence); type: cell-based
T1 construct: protein which is expressed from the SMARCA2 and SMARCA4 genes; host or cells: HeLa (SMARCA2-HiBiT engineered line)
Procedure, shortened: (§1)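 SMARCA2- or SMARCA4-HiBiT HeLa cells seeded overnight at 37° C, then given compound as a 10-point dilution (typically 10 μM to 300 pM) for 24 h at 37° C. Protein level read by HiBiT lytic detection luminescence; DC50 from dose-response curves; degradation also scored at 1 μM.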

[2] = target: T2, SMARCA4-HiBiT HeLa cells (protein which is expressed from the SMARCA4 gene) (Homo sapiens, UniProt P51532); experiment: SMARCA4 degradation assay (HiBiT-fusion HeLa cell line, 24 h, luminescence); type: cell-based
T2 construct: protein which is expressed from the SMARCA2 and SMARCA4 genes; host or cells: HeLa (SMARCA4-HiBiT engineered line)
Procedure, shortened: as §1

T2 sequence (P51532 whole entry, the tested form may be a part): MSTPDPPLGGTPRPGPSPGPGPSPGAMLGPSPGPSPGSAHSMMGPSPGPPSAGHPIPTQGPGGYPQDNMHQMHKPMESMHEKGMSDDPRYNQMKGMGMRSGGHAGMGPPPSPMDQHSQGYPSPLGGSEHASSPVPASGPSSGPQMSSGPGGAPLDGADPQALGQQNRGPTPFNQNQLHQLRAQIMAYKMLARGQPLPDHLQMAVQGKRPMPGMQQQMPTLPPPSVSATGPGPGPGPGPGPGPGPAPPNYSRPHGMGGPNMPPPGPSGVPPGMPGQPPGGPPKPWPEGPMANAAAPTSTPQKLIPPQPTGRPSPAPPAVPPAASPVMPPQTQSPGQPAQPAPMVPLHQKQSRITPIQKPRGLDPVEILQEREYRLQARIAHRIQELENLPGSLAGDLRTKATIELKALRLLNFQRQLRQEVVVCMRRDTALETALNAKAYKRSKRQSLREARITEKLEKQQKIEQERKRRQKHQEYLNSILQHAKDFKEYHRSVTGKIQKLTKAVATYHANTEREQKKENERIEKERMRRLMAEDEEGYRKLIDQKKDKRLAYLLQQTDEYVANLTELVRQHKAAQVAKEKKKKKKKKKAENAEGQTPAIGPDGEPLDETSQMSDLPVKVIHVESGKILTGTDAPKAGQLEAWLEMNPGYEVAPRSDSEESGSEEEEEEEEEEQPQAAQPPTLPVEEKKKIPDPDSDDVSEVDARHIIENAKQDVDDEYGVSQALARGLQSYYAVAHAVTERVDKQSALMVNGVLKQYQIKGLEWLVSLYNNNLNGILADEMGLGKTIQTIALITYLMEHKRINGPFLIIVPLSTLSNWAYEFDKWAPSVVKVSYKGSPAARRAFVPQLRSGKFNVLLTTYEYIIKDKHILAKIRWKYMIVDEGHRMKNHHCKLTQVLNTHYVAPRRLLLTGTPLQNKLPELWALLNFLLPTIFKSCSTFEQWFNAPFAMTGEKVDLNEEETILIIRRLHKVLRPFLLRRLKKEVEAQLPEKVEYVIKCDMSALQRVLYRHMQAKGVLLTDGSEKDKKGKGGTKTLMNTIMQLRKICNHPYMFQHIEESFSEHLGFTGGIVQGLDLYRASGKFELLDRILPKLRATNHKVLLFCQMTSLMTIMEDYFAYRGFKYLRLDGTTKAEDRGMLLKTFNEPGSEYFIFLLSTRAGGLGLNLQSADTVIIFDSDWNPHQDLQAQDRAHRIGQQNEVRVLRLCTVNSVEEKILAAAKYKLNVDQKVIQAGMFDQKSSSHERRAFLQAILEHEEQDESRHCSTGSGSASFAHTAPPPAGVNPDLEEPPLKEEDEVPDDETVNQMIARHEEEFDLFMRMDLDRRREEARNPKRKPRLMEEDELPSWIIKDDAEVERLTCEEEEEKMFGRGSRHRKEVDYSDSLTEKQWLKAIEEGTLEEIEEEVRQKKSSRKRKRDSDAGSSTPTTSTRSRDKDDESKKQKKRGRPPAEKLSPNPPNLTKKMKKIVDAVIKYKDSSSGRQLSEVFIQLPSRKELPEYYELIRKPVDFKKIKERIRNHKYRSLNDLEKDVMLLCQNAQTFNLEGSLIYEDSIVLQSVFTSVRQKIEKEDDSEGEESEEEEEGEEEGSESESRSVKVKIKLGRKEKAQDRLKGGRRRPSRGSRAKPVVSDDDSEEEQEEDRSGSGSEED
T1 sequence (P51531 whole entry, the tested form may be a part): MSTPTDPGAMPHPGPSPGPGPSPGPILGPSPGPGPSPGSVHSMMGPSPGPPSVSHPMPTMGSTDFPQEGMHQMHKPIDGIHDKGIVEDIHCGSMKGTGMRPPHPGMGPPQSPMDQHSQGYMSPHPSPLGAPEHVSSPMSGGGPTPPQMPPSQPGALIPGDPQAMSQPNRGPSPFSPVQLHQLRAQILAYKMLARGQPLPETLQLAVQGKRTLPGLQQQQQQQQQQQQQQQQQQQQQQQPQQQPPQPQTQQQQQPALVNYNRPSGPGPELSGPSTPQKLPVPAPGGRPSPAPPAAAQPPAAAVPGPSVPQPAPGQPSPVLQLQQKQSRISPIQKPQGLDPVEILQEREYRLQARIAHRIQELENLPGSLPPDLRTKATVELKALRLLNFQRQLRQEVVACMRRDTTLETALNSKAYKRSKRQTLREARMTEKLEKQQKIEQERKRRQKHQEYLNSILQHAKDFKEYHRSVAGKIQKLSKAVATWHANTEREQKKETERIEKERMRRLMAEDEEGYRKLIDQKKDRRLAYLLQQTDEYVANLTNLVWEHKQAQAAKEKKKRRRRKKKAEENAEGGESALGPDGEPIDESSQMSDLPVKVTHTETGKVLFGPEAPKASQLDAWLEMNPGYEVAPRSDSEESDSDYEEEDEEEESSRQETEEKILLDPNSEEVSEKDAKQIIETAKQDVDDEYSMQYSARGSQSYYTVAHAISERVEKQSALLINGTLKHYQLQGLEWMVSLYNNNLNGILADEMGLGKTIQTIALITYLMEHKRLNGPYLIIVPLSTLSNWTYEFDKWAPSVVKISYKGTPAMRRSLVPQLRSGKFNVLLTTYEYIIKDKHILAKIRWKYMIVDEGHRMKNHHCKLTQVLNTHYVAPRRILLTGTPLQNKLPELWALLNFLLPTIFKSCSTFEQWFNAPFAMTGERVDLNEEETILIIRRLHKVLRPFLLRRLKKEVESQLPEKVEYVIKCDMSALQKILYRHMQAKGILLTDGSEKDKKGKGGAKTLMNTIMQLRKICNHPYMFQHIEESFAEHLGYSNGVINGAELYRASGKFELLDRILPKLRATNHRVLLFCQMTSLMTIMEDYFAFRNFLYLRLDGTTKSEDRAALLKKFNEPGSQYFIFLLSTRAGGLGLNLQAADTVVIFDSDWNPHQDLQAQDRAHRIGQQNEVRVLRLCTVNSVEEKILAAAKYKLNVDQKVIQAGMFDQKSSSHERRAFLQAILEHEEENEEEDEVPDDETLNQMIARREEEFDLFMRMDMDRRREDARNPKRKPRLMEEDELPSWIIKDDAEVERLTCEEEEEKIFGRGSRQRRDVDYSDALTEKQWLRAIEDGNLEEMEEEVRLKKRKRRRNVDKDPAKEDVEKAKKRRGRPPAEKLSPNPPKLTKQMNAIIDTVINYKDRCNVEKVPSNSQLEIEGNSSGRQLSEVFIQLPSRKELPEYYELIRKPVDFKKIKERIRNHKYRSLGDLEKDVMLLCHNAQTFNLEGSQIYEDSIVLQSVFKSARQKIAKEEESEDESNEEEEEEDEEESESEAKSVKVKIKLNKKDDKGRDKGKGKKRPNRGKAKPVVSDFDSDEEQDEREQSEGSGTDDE

Structure (SMILES)	DC50 [1] [nM]	SMARCA2 % Degradation @ 1 μM ([1]; @ 1 μM)	DC50 [2] [nM]	inhibition at 1 µM ([2]; @ 1 μM) [%]	SMARCA2 % Degradation @ 1 μM ([1]; 1 μM)	inhibition at 1 µM ([2]; 1 μM) [%]
Nc1nnc(-c2ccccc2O)cc1N1CC2CCC(C1)N2c1ccnc(C#CCn2nnc3ccccc32)n1 [Compound P-132, 2-(5-(8-(2-(3-(1H-benzo[d][1,2,3]triazol-1-yl)prop-1-yn-1-yl)pyrimidin-4-yl)-3,8-diazabicyclo| 3.2.1 |octan-3-yl)-6-aminopyridazin-3-yl)phenol]	500 to 5000	++ (++=30-70%)	500 to 5000	30 to 70		
Nc1nnc(-c2ccccc2O)cc1N1CC2CCC(C1)N2c1ccnc(C#CCCCNC(=O)c2cc3ncccn3n2)n1 [Compound P-99, N-(5-(4-(3-(3-amino-6-(2-hydroxyphenyl)pyridazin-4-yl)-3,8-diazabicyclo[3.2.1]octan-8-yl)pyrimidin-2-yl)pent-4-yn-1-yl)pyrazolo[1,5-a]pyrimidine-2-carboxamide]	500 to 5000	+ (+=<30%)	500 to 5000	< 30		
Nc1nnc(-c2ccccc2O)cc1N1CCCN(c2ccnc(C#CCN3CCCC(O)C3)n2)CC1 (stereo not drawn) [Compound P-361, 1-[3-(4-{4-[3-amino-6-(o-hydroxyphenyl)-4-pyridazinyl]-1,4-diazepan-1-yl}-2-pyrimidinyl)-2-propynyl]-3-piperidinol]	500 to 5000	++ (++=30-70%)	500 to 5000	< 30		
Nc1nnc(-c2ccccc2O)cc1N1CC2C1CCN2c1ccnc(C#CCNC(=O)c2cc3ncccn3n2)n1 (stereo not drawn) [Compound P-18, N-(3-(4-(6-(3-amino-6-(2-hydroxyphenyl)pyridazin-4-yl)-2,6-diazabicyclo[3.2.0]heptan-2-yl)pyrimidin-2-y1)prop-2-yn-1-yl)pyrazolo[1,5-a]pyrimidine-2-carboxamide]	500 to 5000	+ (+=<30%)	50 to 500	30 to 70		
Cc1c(C(=O)NCC#Cc2nccc(N3CCN(c4cc(-c5ccccc5O)nnc4N)CC[C@H]3C)n2)nn(C)c1C [Compound P-239, N-[3-(4-{ (R)-4-[3-amino-6-(o-hydroxyphenyl)-4-pyridazinyl]-7-methyl-1,4-diazepan-1-y1}-2-pyrimidinyl)-2-propynyl]-1-methyl-4,5-dimethyl-3-pyrazolecarboxamide]	50 to 500	++ (++=30-70%)	50 to 500	30 to 70		
Nc1nnc(-c2ccccc2O)cc1N1CCCN(c2ccnc(/C=C/CNC(=O)c3cc4ncccn4n3)n2)CC1 [Compound P-112, (E)-N-(3-(4-(4-(3-amino-6-(2-hydroxyphenyl)pyridazin-4-yl)-1,4-diazepan-1-yl)pyrimidin-2-yl)allyl)pyrazolo[1,5-a]pyrimidine-2-carboxamide]	50 to 500	+++ (+++=>70%)	50 to 500	> 70		
C[C@@H]1CCN(c2cc(-c3ccccc3O)nnc2N)CCN1c1ccnc(C#CC2CCC2)c1 [Compound P-388, 0-(5-{(R)-4-[2-(2-cyclobutylethynyl)-4-pyridyl]-5-methyl-1,4-diazepan-1-yl}-6-amino-3-pyridazinyl)phenol]	50 to 500		500 to 5000		++ (++=30-70%)	30 to 70
COC1CN(CC#Cc2nccc(N3CCCN(c4cc(-c5ccccc5O)nnc4N)CC3)n2)C1 [Compound P-309, 0-[6-amino-5-(4-{2-[3-(3-methoxy-1-azetidinyl)-1-propynyl]-4-pyrimidinyl}-1,4-diazepan-1-yl)-3-pyridazinyl]phenol]	50 to 500	++ (++=30-70%)	50 to 500	30 to 70		
Nc1nnc(-c2ccccc2O)cc1N1CCN(c2ccnc(C#CCNC(=O)c3noc4ccccc34)n2)CC1 [Compound P-54, N-(3-(4-(4-(3-amino-6-(2-hydroxyphenyl)pyridazin-4-yl)piperazin-1-yl)pyrimidin-2-yl)prop-2-yn-1-yl)benzo[d]isoxazole-3-carboxamide]	50 to 500	++ (++=30-70%)	50 to 500	30 to 70		
CC(C#Cc1nccc(N2CCN(c3cc(-c4ccccc4O)nnc3N)CC2)n1)NC(=O)c1cc2ncccn2n1 (stereo not drawn) [Compound P-95, N-(4-(4-(4-(3-amino-6-(2-hydroxyphenyl)pyridazin-4-yl)piperazin-1-yl)pyrimidin-2-yl)but-3-yn-2-yl)pyrazolo[1,5-a]pyrimidine-2-carboxamide]	50 to 500	+ (+=<30%)	< 50	30 to 70		
Nc1nnc(-c2ccccc2O)cc1OC1CC2CN(c3ccnc(C#CCN4CCOCC4)n3)CC2C1 (stereo not drawn) [Compound P-220, o-(6-amino-5-{3-[2-(3-morpholino-1-propynyl)-4-pyrimidinyl]-3-azabicyclo[3.3.0]oct-7-yloxy}-3-pyridazinyl)phenol]	50 to 500	+++ (+++=>70%)	50 to 500	30 to 70		
Nc1nnc(-c2ccccc2O)cc1N1CCCN(c2ccnc(C#CCN[C@@H]3CCOC3)n2)CC1 [Compound P-273, 0-{5-[4-(2-{3-[(R)-tetrahydro-3-furylamino]-1-propynyl}-4-pyrimidinyl)-1,4-diazepan-1-yl]-6-amino-3-pyridazinyl}phenol]	50 to 500	+++ (+++=>70%)	50 to 500	30 to 70		
NC/C=C/c1nccc(N2CCCN(c3cc(-c4ccccc4O)nnc3N)CC2)n1 [Compound P-113, (E)-2-(6-amino-5-(4-(2-(3-aminoprop-1-en-1-yl)pyrimidin-4-yl)-1,4-diazepan-1-yl)pyridazin-3-yl)phenol]	50 to 500	++ (++=30-70%)	500 to 5000	< 30		
CN(C)c1cc(N2CCCN(c3cc(-c4ccccc4O)nnc3N)CC2)nc(C#CCNC(=O)c2cc3ncccn3n2)n1 [Compound P-139, N-(3-(4-(4-(3-amino-6-(2-hydroxyphenyl)pyridazin-4-yl)-1,4-diazepan-1-yl)-6-(dimethylamino)pyrimidin-2-yl)prop-2-yn-1-yl)pyrazolo[1,5-a]pyrimidine-2-carboxamide]	50 to 500	+++ (+++=>70%)	500 to 5000	> 70		
C[C@@H]1CN(CC#Cc2nccc(N3CCCN(c4cc(-c5ccccc5O)nnc4N)CC3)n2)C[C@@H](C)O1 [Compound P-356, 0-{5-[4-(2-{3-[(2R,6R)-2,6-dimethyl-4-morpholinyl]-1-propynyl}-4-pyrimidinyl)-1,4-diazepan-1-yl]-6-amino-3-pyridazinyl}phenol]	500 to 5000	++ (++=30-70%)	500 to 5000	< 30		

Continued, values first:

DC50 [1] [nM]	SMARCA2 % Degradation @ 1 μM ([1]; @ 1 μM)	DC50 [2] [nM]	inhibition at 1 µM ([2]; @ 1 μM) [%]	SMARCA2 % Degradation @ 1 μM ([1]; 1 μM)	inhibition at 1 µM ([2]; 1 μM) [%]	Structure (SMILES)
50 to 500	+++ (+++=>70%)	50 to 500	30 to 70			Nc1nnc(-c2ccccc2O)cc1N1CCCN(c2ccnc(C#CCn3ccnc3)n2)CC1 [Compound P-145, 2-(5-(4-(2-(3-(1H-imidazol-1-yl)prop-1-yn-1-yl)pyrimidin-4-yl)-1,4-diazepan-1-yl)-6-aminopyridazin-3-yl)phenol]
50 to 500		50 to 500	30 to 70			Nc1nnc(-c2ccccc2O)cc1N1CCCN(c2ccnc(C#CCn3cccn3)n2)CC1 [Compound P-149, 2-(5-(4-(2-(3-(1H-pyrazol-1-yl)prop-1-yn-1-yl)pyrimidin-4-yl)-1,4-diazepan-1-yl)-6-aminopyridazin-3-yl)phenol]
50 to 500	+++ (+++=>70%)	50 to 500	30 to 70			C[C@@H]1CCN(c2cc(-c3ccccc3O)nnc2N)CCN1c1ccnc(C#CCN2CC(C#N)C2)n1 [Compound P-215, 1-[3-(4-{ (R)-4-[3-amino-6-(o-hydroxyphenyl)-4-pyridazinyl]-7-methyl-1,4-diazepan-1-yl}-2-pyrimidinyl)-2-propynyl]-3-azetidinecarbonitrile]
50 to 500	+++ (+++=>70%)	50 to 500	30 to 70			CC(C)(C)OC(=O)N1CCN(CC#Cc2nccc(N3CCCN(c4cc(-c5ccccc5O)nnc4N)CC3)n2)CC1 [Compound P-143, tert-butyl 4-(3-(4-(4-(3-amino-6-(2-hydroxyphenyl)pyridazin-4-yl)-1,4-diazepan-1-yl)pyrimidin-2-yl)prop-2-yn-1-yl)piperazine-1-carboxylate]
50 to 500	+++ (+++=>70%)	50 to 500	30 to 70			CC[C@@H](C)NCC#Cc1nccc(N2CCCN(c3cc(-c4ccccc4O)nnc3N)CC2)n1 [Compound P-274, 0-{5-[4-(2-{3-[(R)-1-methylpropylamino]-1-propynyl}-4-pyrimidinyl)-1,4-diazepan-1-yl]-6-amino-3-pyridazinyl}phenol]
< 50	++ (++=30-70%)	< 50	30 to 70			Nc1nnc(-c2ccccc2O)cc1N1C[C@H]2CN(c3ccnc(C#CCN4CC(F)(F)C4)n3)C[C@H]2C1 [Compound P-180]
< 50	++ (++=30-70%)	< 50	30 to 70			C[C@@H]1CCN(c2cc(-c3ccccc3O)nnc2N)CCN1c1ccnc(C#CCN2CCC(C)(F)C2)n1 (stereo partly drawn) [Compound P-210, o-{5-[(R)-4-{2-[3-(3-fluoro-3-methyl-1-pyrrolidinyl)-1-propynyl]-4-pyrimidinyl}-5-methyl-1,4-diazepan-1-yl]-6-amino-3-pyridaziny1} phenol]

Source: patent publication US20260265238A1, “COMPOUNDS AND PHARMACEUTICAL COMPOSITIONS THAT DEGRADE SWI/SNF-RELATED MATRIX-ASSOCIATED ACTIN-DEPENDENT REGULATOR OF CHROMATIN SUBFAMILY A” (Plexium, Inc., priority 2023, published 2026)
